Laboratory results published in patent US20240208969A1, “SUBSTITUTED FUSED BICYCLIC COMPOUNDS AS PARP INHIBITORS AND THE USE THEREOF” (IMPACT THERAPEUTICS (SHANGHAI), INC., priority 2021, published 2024).

Tested on: MDA-MB-436 cells
Experiment: Inhibition of proliferation of human breast cancer MDA-MB-436 cell line (CCK-8, 7 days)
Format: cell-based
Settings: Homo sapiens, 168 h, proliferation of MDA-MB-436, 7 days
Method: The cells were cultured in complete medium (DMEM medium +10% FBS+Insulin+glutathione). When the confluence reached about 80%, cells were digested and gently dispensed from the bottom of the dish with a 1 mL pipette. Cell suspension was collected and centrifuged at 500 rpm for 3 min. The supernatant was discarded, and the cell pellet were re-suspended in complete medium. The cells were seeded into a culture dish at an appropriate proportion, and then cultured in a 5% CO2 incubator at 37° C. The assay was carried out when the cells were in optimum condition and the confluence was reached 80%. Cells were harvested in the logarithmic growth phase by using 1 mL pipette gently and then centrifugated at 500 rpm for 3 min. The cells were resuspended by using refresh medium after removing the supernatant and then the cells were counted. The cells were seeded at 3000/well in a 96 well plate and incubated at 37° C. 5% CO2 incubator overnight. In the second day, cells were treated with compound at 8 serially diluted dose with 1000×final concentration in 100% DMSO. The compound was prepared as below: 1000×dilution tested compound solution to 40×test compound solution by adding 5μL, 1000×compound solution to 120 μL Medium (25-fold dilution). The solution was mixed by oscillation. DMSO was used as the control.
The medium was removed from the wells in the plate after the plate was taken out from incubator. Then, fresh medium of 195 μL/per well was added to the 96 well plate. 5μL/per well of 40×test compound solution was added into the 96 well plate. Finally, the plate was incubated for 7 days in a 37° C. 5% CO2 incubator. The medium containing compound was changed once on the fourth day. After 7 days, 20 μL of CCK-8 was added to each well and shake gently, then was cultured for 4 hours. The plate was shaken for 5 min after incubation, the absorbance values of 450 nm. and 650nm wavelengths were recorded respectively (OD=absorbance value of 450 nm−absorbance value of 650 nm) by using the multifunction readout instrument.
Data were analyzed by software GraphPad Prism 6.0. The inhibitory activity of compounds on cell proliferation was plotted using cell survival rate against the compound concentration as coordinates. Cell survival rate %=(ODcompound−ODbackground)/(ODDMSO−ODbackground)×100. The IC50 value was fitted by the s-shaped dose response curve equation: Y=100/(1+10^(log C−log IC50)), and C was the compound concentration.
Table 2 summarizes the inhibitory effect data (IC50) of the compounds on the proliferation of human breast cancer cells MDA-MB-436, wherein ++++ indicates 1<IC50≤10 nM; +++ indicates 10 nM<IC50≤100 nM; ++ indicates 100 nM<IC50≤1 μM; + indicates IC50>1 μM.

| SMILES | IC50 [nM] |
| --- | --- |
| CCn1c(=O)[nH]c2cc(CN3CCN(c4cnc(C(=O)NC)cc4C)CC3)ccc2c1=O [Example 50, 5-(4-((3-ethyl-2,4-dioxo-1,2,3,4-tetrahydroquinazolin-7-yl)methyl)piperazin-1-yl)-N,4-dimethylpicolinamide] | > 1000 |
| CCn1c(=O)[nH]c2cc(CN3CCN(c4ccc(C(=O)NC)cc4C)CC3)ccc2c1=O [Example 71, 4-(4-((3-ethyl-2,4-dioxo-1,2,3,4-tetrahydroquinazolin-7-yl)methyl)piperazin- -yl)-N,3-dimethylbenzamide] | > 1000 |
| CCN1Cc2ncc(CN3CCN(c4ccc(C(=O)NC)nc4)CC3)cc2NC1=O [Example 144, 5-(4-((3-ethyl-2-oxo-1,2,3,4-tetrahydropyrido[3,2-d]pyrimidin-7-yl)methyl)piperazin-1-yl)-N-methylpicolinamide] | 10 to 100 |
| CCn1c(=O)[nH]c2cc(CN3CCN(c4ccc(C(=O)NC)cc4)CC3)ccc2c1=O [Example 68, 4-(4-((3-ethyl-2,4-dioxo-1,2,3,4-tetrahydroquinazolin-7-yl)methyl)piperazin-1-yl)-N-methylbenzamide] | > 1000 |
| CCn1c(=O)[nH]c2nc(CN3CCN(c4ccc(C(=O)NC)nc4C)CC3)ccc2c1=O [Example 74, 5-(4-((3-ethyl-2,4-dioxo-1,2,3,4-tetrahydropyrido[2,3-d]pyrimidin-7-yl)methyl)piperazin-1-yl)-N,6-dimethylpicolinamide] | > 1000 |
| CCn1c(=O)[nH]c2cc(CN3CCN(c4ccc(C(=O)NC)nc4)CC3)ncc2c1=O [Example 5, 5-(4-((3-ethyl-2,4-dioxo-1,2,3,4-tetrahydropyrido[4,3-d]pyrimidin-7-yl)methyl)piperazin-1-yl)-N-methylpicolinamide] | > 1000 |
| CCn1c(=O)[nH]c2cc(CN3CCN(c4ccc(C(=O)NC)nc4Cl)CC3)c(C)cc2c1=O [Example 66, 6-chloro-5-(4-((3-ethyl-6-methyl-2,4-dioxo-1,2,3,4-tetrahydroquinazolin-7-yl)methyl)piperazin-1-yl)-N-methylpicolinamide] | 100 to 1000 |
| CCn1c(=O)[nH]c2cc(CN3CCN(c4ccc(C(=O)NC5CC5)nc4Cl)CC3)cc(Cl)c2c1=O [Example 131, 6-chloro-5-(4-((5-chloro-3-ethyl-2,4-dioxo-1,2,3,4-tetrahydroquinazolin-7-yl)methyl)piperazin-1-yl)-N-cyclopropylpicolinamide] | 1 to 10 |
| CCn1c(=O)[nH]c2cc(CN3CCN(c4ccc(C(=O)NC)nc4C(F)F)CC3)ccc2c1=O [Example 35, 5-(4-((3-ethyl-2,4-dioxo-1,2,3,4-tetrahydroquinazolin-7-yl)methyl)piperazin-1-yl)-6-(difluoromethyl)-N-methylpicolinamide] | 100 to 1000 |
| CCn1c(=O)[nH]c2cc(CN3CCN(c4ccc(C(=O)NC)nc4F)CC3)cc(Cl)c2c1=O [Example 136, 5-(4-((5-chloro-3ethyl-2,4-dioxo-1,2,3,4-tetrahydroquinazolin-7-yl)methyl)piperazin-1-yl)-6-fluoro-N-methylpicolinamide] | 1 to 10 |
| CCn1c(=O)[nH]c2cc(CN3CCN(c4cnc(C(=O)NC)cn4)CC3)ccc2c1=O [Example 57, 5-(4-((3-ethyl-2,4-dioxo-1,2,3,4-tetrahydroquinazolin-7-yl)methyl)piperazin-1-yl)-N-methylpyrazine-2-carboxamide] | > 1000 |
| CCN1Cc2ccc(CN3CCN(c4ccc(C(=O)NC5CC5)nc4Cl)CC3)cc2NC1=O [Example 132, 6-chloro-N-cyclopropyl-5-(4-((3-ethyl-2-oxo-1,2,3,4-tetrahydroquinazolin-7-yl)methyl)piperazin-1-yl)picolinamide] | 1 to 10 |
| CCNC(=O)c1ccc(N2CCN(Cc3cc(F)c4c(c3)NC(=O)N(CC)C4)CC2)c(C)n1 [Example 121, N-ethyl-5-(4-((3-ethyl-5-fluoro-2-oxo-1,2,3,4-tetrahydroquinazolin-7-yl)methyl)piperazin-1-yl)-6-methylpicolinamide] | 10 to 100 |
| CCn1c(=O)[nH]c2cc(CN3CCN(c4ccn5c(=O)ccnc5c4)CC3)ccc2c1=O [Example 38, 3-ethyl-7-((4-(4-oxo-4H-pyrido[1,2-a]pyrimidin-8-yl)piperazin-1-yl)methyl)quinazoline-2,4(1H,3H)-dione] | > 1000 |
| CCn1c(=O)[nH]c2cc(CN3CCN(c4ccc(C(=O)NC5CC5)nc4F)CC3)cc(F)c2c1=O [Example 141, N-cyclopropyl-5-(4-((3-ethyl-5-fluoro-2,4-dioxo-1,2,3,4-tetrahydroquinazolin-7-yl)methyl)piperazin-1-yl)-6-fluoropicolinamide] | 1 to 10 |

Continued, values first:

| IC50 [nM] | SMILES |
| --- | --- |
| > 1000 | CCn1c(=O)[nH]c2cc(CN3CCC(c4ccc(C(=O)NC)nc4C)CC3)ccc2c1=O [Example 58, 5-(1-((3-ethyl-2,4-dioxo-1,2,3,4-tetrahydroquinazolin-7-yl)methyl)piperidin-4-yl)-N,6-dimethylpicolinamide] |
| > 1000 | CCn1c(=O)[nH]c2cc(-c3cccc(C(=O)Nc4ccc(C(=O)NC)nc4)c3)cnc2c1=O [Example 45, 5-(3-(3-ethyl-2,4-dioxo-1,2,3,4-tetrahydropyrido[3,2-d]pyrimidin-7-yl)benzamido)-1-methylpicolinamide] |
| 10 to 100 | CCNC(=O)c1ccc(N2CCN(Cc3cc(F)c4c(=O)n(CC)c(=O)[nH]c4c3)CC2)c(C)n1 [Example 82, N-ethyl-5-(4-((3ethyl-5-fluoro-2,4-dioxo-1,2,3,4-tetrahydroquinazolin-7-yl)methyl)piperazin-1-yl)-6-methylpicolinamide] |
| 10 to 100 | CCn1c(=O)[nH]c2cc(CN3CCN(c4ccc(C(=O)NC)nc4C)CC3)ncc2c1=O [Example 81, 5-(4-((3-ethyl-2,4-dioxo-1,2,3,4-tetrahydropyrido[4,3-d]pyrimidin-7-yl)methyl)piperazin-1-yl)-N,6-dimethylpicolinamide] |
| 10 to 100 | CNC(=O)c1ccc(N2CCN(Cc3ccc4c(=O)n(C)c(=O)[nH]c4c3F)CC2)c(F)n1 [Example 138, 6-fluoro-5-(4-((8-fluoro-3-methyl-2,4-dioxo-1,2,3,4-tetrahydroquinazolin-7-yl)methyl)piperazin-1-yl)-N-methylpicolinamide] |
| > 1000 | CCn1c(=O)[nH]c2cc(CN3CCN(c4cnc(C(=O)NC)c(C)c4)CC3)ccc2c1=O [Example 51, 5-(4-((3-ethyl-2,4-dioxo-1,2,3,4-tetrahydroquinazolin-7-yl)methyl)piperazin-1-yl)-N,3-dimethylpicolinamide] |
| 10 to 100 | CCNC(=O)c1ccc(N2CCN(Cc3cnc4c(=O)n(CC)c(=O)[nH]c4c3)CC2)c(C)n1 [Example 103, N-ethyl-5-(4-((3-ethyl-2,4-dioxo-1,2,3,4-tetrahydropyrido[3,2-d]pyrimidin-7-yl)methyl)piperazin-1-yl)-6-methylpicolinamide] |
| 10 to 100 | CCNC(=O)c1ccc(N2CCN(Cc3cnc4c(=O)n(CC)c(=O)[nH]c4c3)CC2)c(Cl)n1 [Example 102, 6-chloro-N-ethyl-5-(4-((3-ethyl-2,4-dioxo-1,2,3,4-tetrahydropyrido[3,2-d]pyrimidin-7-yl)methyl)piperazin-1-yl)picolinamide] |
| 10 to 100 | CNC(=O)c1ccc(N2CCN(Cc3ccc4c(=O)n(C)c(=O)[nH]c4c3)CC2)c(C)n1 [Example 99, N,6-dimethyl-5-(4-((3-methyl-2,4-dioxo-1,2,3,4-tetrahydroquinazolin-7-yl)methyl)piperazin-1-yl)picolinamide] |
| > 1000 | CCn1c(=O)[nH]c2cc(CN3CCN(c4ccc(C(=O)N(C)C)nc4F)CC3)ccc2c1=O [Example 39, 5-(4-((3-ethyl-2,4-dioxo-1,2,3,4-tetrahydroquinazolin-7-yl)methyl)piperazin-1-yl)-6-fluoro-N,N-dimethylpicolinamide] |
| 100 to 1000 | CCNC(=O)c1ccc(N2CCN(Cc3ccc4c(=O)n(C)c(=O)[nH]c4c3)CC2)c(C)n1 [Example 101, N-ethyl-6-methyl-5-(4-((3-methyl-2,4-dioxo-1,2,3,4-tetrahydroquinazolin-7-yl)methyl)piperazin-1-yl)picolinamide] |
| > 1000 | CCn1c(=O)[nH]c2cc(CN3CCN(c4ccc5[nH]ncc5c4)CC3)ccc2c1=O [Example 112, 7-((4-(1H-indazol-5-yl)piperazin-1-yl)methyl)-3-ethylquinazoline-2,4(1H,3H)-dione] |
| > 1000 | CCn1c(=O)[nH]c2cc(-c3cc(F)cc(C(=O)Nc4ccc(C(=O)NC)nc4)c3)ccc2c1=O [Example 43, 5-(3-(3-ethyl-2,4-dioxo-1,2,3,4-tetrahydroquinazolin-7-yl)-5-fluorobenzamido)-N-methylpicolinamide] |
